One assay has as its system HCT-116. The assay can be described thus: Antiproliferative activity against human HCT116 cells after 72 hrs by CCK-8 reagent based assay. As to conditions: HCT-116, 72 h. It counts as functional, cell-based.
The subject of assay [1] is A549. Put plainly: Antiproliferative activity against human A549 cells after 72 hrs by CCK-8 reagent based assay. The class given is functional, cell-based. As to conditions: A549, 72 h.
A further assay concerns MGC-803. Put plainly: Antiproliferative activity against human MGC803 cells after 72 hrs by CCK-8 reagent based assay. It counts as functional, cell-based. As to conditions: MGC-803, 72 h.
The subject of the next assay is HepG2. The assay can be described thus: Antiproliferative activity against human HepG2 cells after 72 hrs by CCK-8 reagent based assay. As to conditions: HepG2, 72 h. The class given is functional, cell-based.
The subject of assay [2] is A549. The assay can be described thus: Inhibition of colony formation in human A549 cells after 7 days by crystal violet staining based assay. It counts as functional, cell-based.
Assay [3] has as its system A549. Put plainly: Induction of apoptosis in human A549 cells assessed as necrotic cells at 4 umol/L after 48 hrs by Alexa Fluor 488 Annexin/propidium iodide staining-based flow cytometry (reference value: 0.87%). It counts as functional.
Assay [4] relates to A549. Put plainly: Cell cycle arrest in human A549 cells assessed as accumulation at G2/M phase at 16 umol/L after 48 hrs by propidium iodide staining-based flow cytometry (reference value: 9.1%). The following applies: at 16 µM. The class given is functional.
For assay [5], the system named is A549. The assay can be described thus: Cell cycle arrest in human A549 cells assessed as accumulation at G0/G1 phase at 16 umol/L after 48 hrs by propidium iodide staining-based flow cytometry (reference value: 75.77%). It counts as functional.
The subject of assay [6] is A549. The assay can be described thus: Cell cycle arrest in human A549 cells assessed as accumulation at S phase at 16 umol/L after 48 hrs by propidium iodide staining-based flow cytometry (reference value: 15.13%). It counts as functional.
Assay [7] concerns A549. The assay can be described thus: Cell cycle arrest in human A549 cells assessed as accumulation at S phase at 2 umol/L after 48 hrs by propidium iodide staining-based flow cytometry (reference value: 15.13%). It counts as functional.
In assay [8] the test system is A549. The assay can be described thus: Cell cycle arrest in human A549 cells assessed as accumulation at G2/M phase at 2 umol/L after 48 hrs by propidium iodide staining-based flow cytometry (reference value: 9.1%). The class given is functional. As to conditions: at 2 µM.
For assay [9], the system named is A549. The assay can be described thus: Induction of apoptosis in human A549 cells assessed as viable cells at 4 umol/L after 48 hrs by Alexa Fluor 488 Annexin/propidium iodide staining-based flow cytometry (reference value: 92.79%). It counts as functional. The following applies: A549, 48 h, read-out: Activity.
Assay [10] deals with A549. The assay can be described thus: Induction of apoptosis in human A549 cells assessed as late apoptotic cells at 8 umol/L after 48 hrs by Alexa Fluor 488 Annexin/propidium iodide staining-based flow cytometry (reference value: 2.93%). It counts as functional.
For assay [11], the system named is A549. The assay can be described thus: Induction of apoptosis in human A549 cells assessed as early apoptotic cells at 4 umol/L after 48 hrs by Alexa Fluor 488 Annexin/propidium iodide staining-based flow cytometry (reference value: 3.41%). The class given is functional.
Assay [12] concerns A549. The assay can be described thus: Induction of apoptosis in human A549 cells assessed as necrotic cells at 8 umol/L after 48 hrs by Alexa Fluor 488 Annexin/propidium iodide staining-based flow cytometry (reference value: 0.87%). The class given is functional.
In assay [13] the test system is A549. Put plainly: Cell cycle arrest in human A549 cells assessed as accumulation at G0/G1 phase at 2 umol/L after 48 hrs by propidium iodide staining-based flow cytometry (reference value: 75.77%). The class given is functional.
The subject of assay [14] is A549. Put plainly: Induction of apoptosis in human A549 cells assessed as viable cells at 8 umol/L after 48 hrs by Alexa Fluor 488 Annexin/propidium iodide staining-based flow cytometry (reference value: 92.79%). The class given is functional. As to conditions: A549, 48 h, read-out: Activity.
The subject of assay [15] is A549. Put plainly: Induction of apoptosis in human A549 cells assessed as early apoptotic cells at 8 umol/L after 48 hrs by Alexa Fluor 488 Annexin/propidium iodide staining-based flow cytometry (reference value: 3.41%). It counts as functional.
Assay [16] has as its system A549. The assay can be described thus: Induction of apoptosis in human A549 cells assessed as late apoptotic cells at 4 umol/L after 48 hrs by Alexa Fluor 488 Annexin/propidium iodide staining-based flow cytometry (reference value: 2.93%). The class given is functional.

SMILES strings stand for the structures.

For `Cc1ccc(OCc2ccc(C(=O)Nc3ccccc3N)cc2)cc1`, the IC50 with HCT-116 is 4.86 µM; in the assay on A549 [1], 5.43 µM; with MGC-803, 6.53 µM; with HepG2, 6.59 µM.

Consider `Nc1ccccc1NC(=O)c1ccc(COc2ccc(Cl)cc2)cc1`, for which the IC50 in the assay with HCT-116 was 17.3 µM; in the assay on A549 [1] it was > 32 µM; in the assay on MGC-803, > 32 µM; in the assay with HepG2, > 32 µM.

Take `O=C(/C=C/c1ccc(COc2ccccc2)cc1)NO`: the IC50 in the assay on A549 [1] came out at 5.77 µM; in the assay on HepG2 it was 8.4 µM.

As to `Nc1ccccc1NC(=O)c1ccc(COc2ccccc2)cc1`, the 50% inhibitory concentration (IC50) came to 4.89 µM with HCT-116, 6.76 µM with A549 [1], 5.67 µM in the assay with MGC-803 and 6.7 µM in the assay with HepG2.

In the case of `CCc1ccc(OCc2ccc(C(=O)Nc3ccccc3N)cc2)cc1`, the half-inhibitory concentration (IC50) came to 4.83 µM in the assay with HCT-116, 6.42 µM with A549 [1], 5.88 µM with MGC-803 and 6.96 µM in the assay with HepG2.

For `Nc1ccccc1NC(=O)c1ccc(COc2ccc(Br)cc2)cc1`, the concentration for half-maximal inhibition (IC50) is > 32 µM in the assay with HCT-116, 24.4 µM with A549 [1], > 32 µM in the assay on MGC-803 and > 32 µM with HepG2.

Consider `CC(C)c1ccc(OCc2ccc(C(=O)Nc3ccccc3N)cc2)cc1`, for which the IC50 was 4.57 µM in the assay on HCT-116, 7.46 µM in the assay on A549 [1], > 32 µM in the assay on MGC-803 and > 32 µM in the assay on HepG2.

Regarding `COc1ccc(OCc2ccc(C(=O)Nc3ccccc3N)cc2)cc1`, the IC50 with HCT-116 was found to be 2.02 µM; in the assay with A549 [1], 5.53 µM; with MGC-803, 3.48 µM; in the assay on HepG2, 4.2 µM. For the same molecule, the inhibition result with A549 [2] was “Dose-dependent effect”.

Turning to `Nc1ccc(F)cc1NC(=O)c1ccc(CNC(=O)/C=C/c2cccnc2)cc1`, the half-inhibitory concentration (IC50) with HCT-116 came to 2.28 µM; in the assay with A549 [1], 11 µM; in the assay on MGC-803 it was 6.44 µM; in the assay on HepG2, 22.7 µM. Also, the Activity was found to be 1.52% in the assay with A549 [3]; 6.46% in the assay on A549 [4]; 85.67% in the assay on A549 [5]; 7.87% in the assay on A549 [6]; 10.02% in the assay on A549 [7]; 9.84% in the assay on A549 [8]. Moreover, the Activity with A549 [10] came out at 8.94%; with A549 [11] it was 10.55%; with A549 [12], 2.1%; with A549 [13], 80.14%; in the assay on A549 [15], 13.48%; with A549 [16] it was 6.27%. In addition, the viability at 4 µM with A549 [9] was 81.6%. For the same molecule, the viability at 8 µM with A549 [14] is 75.5%.

As for `Nc1ccccc1NC(=O)/C=C/c1ccc(CN2CCc3ccccc3C2)cc1`, the 50% inhibitory concentration (IC50) turned out to be 14.2 µM with MGC-803 and 13.5 µM with HepG2.

`Nc1ccccc1NC(=O)c1ccc(COc2ccc([N+](=O)[O-])cc2)cc1`: the IC50 with HCT-116, in the assay with A549 [1], in the assay on MGC-803 and in the assay on HepG2 was > 32 µM each time.

With `O=C(NO)c1ccc(COc2ccccc2)cc1`, the figures for the IC50 with A549 [1] and in the assay with HepG2 were 28 µM and 29.6 µM, respectively.

Turning to `Nc1cnccc1NC(=O)/C=C/c1ccc(COc2ccccc2)cc1`, the IC50 in the assay on A549 [1], with MGC-803 and in the assay on HepG2 was > 32 µM in each case.

Turning to `Nc1ccccc1NC(=O)c1ccc(CN2CCc3cc(Br)ccc32)cc1`, the IC50 was 7.39 µM in the assay on MGC-803 and 10.7 µM in the assay with HepG2.

As for `O=C(/C=C/c1ccc(CN2CCc3ccccc32)cc1)NO`, the figures for the IC50 in the assay on A549 [1] and in the assay with HepG2 were 5.48 µM and 14.9 µM, respectively.

Regarding `CCCc1ccc(OCc2ccc(C(=O)Nc3ccccc3N)cc2)cc1`, the IC50 in the assay on HCT-116 was found to be 3.23 µM; with A549 [1], 5.21 µM; in the assay on MGC-803, 4.42 µM; in the assay with HepG2, 4.75 µM.

In the case of `Nc1ccccc1NC(=O)/C=C/c1ccc(COc2ccccc2)cc1`, the IC50 in the assay with A549 [1], in the assay on MGC-803 and in the assay on HepG2 was > 32 µM each time.

In the case of `CC(=O)Nc1ccc(C(=O)Nc2ccccc2N)cc1` [TACEDINALINE], the IC50 is 7.71 µM in the assay with HCT-116, 20.1 µM in the assay with A549 [1], 11.6 µM with MGC-803 and 18.5 µM with HepG2. Also, the Activity with A549 [3] turned out to be 2.91%; in the assay with A549 [4] it was 6.02%; in the assay with A549 [5] it was 89.32%; in the assay on A549 [6], 4.66%; in the assay on A549 [7] it was 9.31%; with A549 [8], 9.1%. In addition, the Activity worked out at 4.76% in the assay with A549 [10]; 6.96% in the assay with A549 [11]; 1.8% in the assay with A549 [12]; 81.59% with A549 [13]; 7.82% in the assay with A549 [15]; 4.39% in the assay with A549 [16]. In addition, the viability at 4 µM with A549 [9] stood at 85.7%. In addition, in the assay with A549 [14], the viability at 8 µM turned out to be 85.6%.

With `Nc1ccccc1NC(=O)/C=C/c1ccc(CN2CCc3ccccc32)cc1`, the IC50 is 13.4 µM with A549 [1], > 32 µM in the assay with MGC-803 and > 32 µM with HepG2.

Regarding `Nc1cc(F)ccc1NC(=O)c1ccc(COc2ccccc2)cc1`, the IC50 in the assay on A549 [1] was 8.34 µM; in the assay with MGC-803 it was 6.02 µM; with HepG2, 7.02 µM.

As to `C/C(=N\O)c1ccc(OCc2ccc(C(=O)NO)cc2)cc1`, the figures for the IC50 in the assay on A549 [1] and in the assay on HepG2 were 8.93 µM and 7.77 µM, respectively.

The values are drawn from ChEMBL document CHEMBL4020706, “Design, synthesis and biological evaluation of novel hydroxamates and 2-aminobenzamides as potent histone deacetylase inhibitors and antitumor agents” (Eur J Med Chem, 2017).
